Where “and” joins values, the source holds several entries; their conditions need not be identical. Identical values can stand only once. Inconclusive results and toxic doses are left out. Cut-off read from the data, not from the text of the source: active = T/C of 150% or more; inactive = T/C below 125%.
Tested on: L1210 leukemia ip in BDF1 mice, survival T/C
Test: NCI In Vivo Anticancer Drug Screen. Data for tumor model L1210 Leukemia (intraperitoneal) in B6D2F1 (BDF1) mice
Conditions: endpoint: mean survival time, higher = longer survival
In short: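 Ratio derived from survival: compound-dosed mice over vehicle-dosed mice, all bearing a transplantable tumor.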

[1] = dose: 100.0 mg/kg/injection, schedule: Q01DX009 (ip), vehicle: Klucel (hydroxypropylcellulose) (HPC)
[2] = dose: 100.0 mg/kg/injection, schedule: Q04DX003 (ip), vehicle: Klucel (hydroxypropylcellulose) (HPC)
[3] = dose: 200.0 mg/kg/injection, schedule: Q01DX009 (ip), vehicle: Klucel (hydroxypropylcellulose) (HPC)
[4] = dose: 100.0 mg/kg/injection, schedule: Q01DX009 (ip), vehicle: saline
[5] = dose: 200.0 mg/kg/injection, schedule: Q01DX009 (ip), vehicle: saline
[6] = dose: 400.0 mg/kg/injection, schedule: Q01DX009 (ip), vehicle: saline
[7] = dose: 100.0 mg/kg/injection, schedule: Q04DX003 (ip), vehicle: saline with Tween-80
[8] = dose: 200.0 mg/kg/injection, schedule: Q04DX003 (ip), vehicle: saline with Tween-80
[9] = dose: 100.0 mg/kg/injection, schedule: Q04DX002 (ip), vehicle: saline
[10] = dose: 100.0 mg/kg/injection, schedule: Q01DX001 (ip), vehicle: saline
[11] = dose: 200.0 mg/kg/injection, schedule: Q01DX001 (ip), vehicle: saline
[12] = dose: 400.0 mg/kg/injection, schedule: Q01DX001 (ip), vehicle: saline
[13] = dose: 100.0 mg/kg/injection, schedule: Q04DX002 (ip), vehicle: Klucel (hydroxypropylcellulose) (HPC)
[14] = dose: 400.0 mg/kg/injection, schedule: Q04DX003 (ip), vehicle: saline with Tween-80
[15] = dose: 50.0 mg/kg/injection, schedule: Q01DX001 (ip), vehicle: carboxymethylcellulose (CMC)
[16] = dose: 100.0 mg/kg/injection, schedule: Q01DX001 (ip), vehicle: carboxymethylcellulose (CMC)
[17] = dose: 100.0 mg/kg/injection, schedule: Q04DX002 (ip), vehicle: saline with Tween-80
[18] = dose: 200.0 mg/kg/injection, schedule: Q04DX002 (ip), vehicle: saline with Tween-80
[19] = dose: 400.0 mg/kg/injection, schedule: Q04DX002 (ip), vehicle: saline with Tween-80

Measured: T/C

CCCCOC(=O)Oc1ccc(C(=O)Oc2ccc(OCC)cc2)cc1
inactive: [1] 111 % of control | [2] 104 % of control | [3] 106 % of control | dose: 200.0 mg/kg/injection, schedule: Q04DX003 (ip), vehicle: Klucel (hydroxypropylcellulose) (HPC) 109 % of control | dose: 400.0 mg/kg/injection, schedule: Q04DX003 (ip), vehicle: Klucel (hydroxypropylcellulose) (HPC) 98 % of control

CC(C)N=C(NC(C)C)c1ccc(NC(=O)c2ccc(C(=O)Nc3ccc(C(=NC(C)C)NC(C)C)cc3)cc2)cc1
inactive: dose: 15.5 mg/kg/injection, schedule: Q01DX Z (ip), vehicle: methylcellulose (MC) 103 % of control

CCCc1c(O)ccc(C)c1C
inactive: dose: 100.0 mg/kg/injection, schedule: Q01DX001 (ip), vehicle: other 91 % of control | dose: 200.0 mg/kg/injection, schedule: Q01DX001 (ip), vehicle: other 103 % of control

CCOC(=O)C(Br)(C(=O)OCC)C(C)C
inactive: [4] 101 % of control | [5] 95 % of control | [6] 100 % of control

O=C1c2cc3c(cc2CCC1N1CCOCC1)CCCC3 (centres undefined)
inactive: [7] 111 % of control | [8] 114 % of control

O=C(O)C(Cc1cccs1)c1ccccc1 (centres undefined)
inactive: dose: 50.0 mg/kg/injection, schedule: Q04DX003 (ip), vehicle: carboxymethylcellulose (CMC) 98 % of control | dose: 100.0 mg/kg/injection, schedule: Q04DX003 (ip), vehicle: carboxymethylcellulose (CMC) 106 % of control | dose: 200.0 mg/kg/injection, schedule: Q04DX003 (ip), vehicle: carboxymethylcellulose (CMC) 106 % of control

Clc1ccc(-c2cc(=[N+]3CCC4(CC3)SSC3(CC[N+](=c5cc(-c6ccc(Cl)cc6)ss5)CC3)S4)ss2)cc1 (centres undefined)
inactive: dose: 25.0 mg/kg/injection, schedule: Q01DX009 (ip), vehicle: water 90 % of control | dose: 50.0 mg/kg/injection, schedule: Q01DX009 (ip), vehicle: water 90 % of control | dose: 100.0 mg/kg/injection, schedule: Q01DX009 (ip), vehicle: water 88 % of control | dose: 400.0 mg/kg/injection, schedule: Q01DX009 (ip), vehicle: water 87 % of control

C[S+](C)CCS(=O)(=O)[O-]
inactive: [9] 99 % of control | dose: 200.0 mg/kg/injection, schedule: Q04DX002 (ip), vehicle: saline 96 % of control | dose: 400.0 mg/kg/injection, schedule: Q04DX002 (ip), vehicle: saline 96 % of control

Cc1cc(=O)[nH]c(N2CCCCC2)n1
inactive: [10] 111 % of control | [11] 95 % of control | [12] 101 % of control

COc1ccc(Cl)cc1NS(=O)(=O)c1cccc([N+](=O)[O-])c1
inactive: [1] 96 % of control | [3] 98 % of control | dose: 400.0 mg/kg/injection, schedule: Q01DX009 (ip), vehicle: Klucel (hydroxypropylcellulose) (HPC) 91 % of control

O=C(O)c1cc(S(=O)(=O)O)cc([N+](=O)[O-])c1O
inactive: [13] 96 % of control | dose: 200.0 mg/kg/injection, schedule: Q04DX002 (ip), vehicle: Klucel (hydroxypropylcellulose) (HPC) 104 % of control | dose: 400.0 mg/kg/injection, schedule: Q04DX002 (ip), vehicle: Klucel (hydroxypropylcellulose) (HPC) 96 % of control

Cc1ccc(S(=O)(=O)c2ccc(F)cc2)cc1
inactive: [7] 104 % of control | [8] 95 % of control | [14] 97 % of control

COc1ccccc1CC=O
inactive: [10] 102 % of control | [11] 103 % of control | [12] 97 % of control

CSc1ncnc2c1N=CNN2
inactive: [15] 94 % of control | [16] 95 % of control

C=C(C(=C)C(=O)O)C(=O)O
inactive: [10] 101 % of control | [4] 98 % of control | [11] 101 % of control | [5] 107 % of control | [12] 98 % of control | [6] 102 % of control

CC1(C)CC(NC(=O)NCCCl)CC(C)(C)N1
inactive: dose: 12.5 mg/kg/injection, schedule: Q01DX009 (ip), vehicle: saline 98 % of control | dose: 12.5 mg/kg/injection, schedule: Q04DX003 (ip), vehicle: saline 101 % of control | dose: 25.0 mg/kg/injection, schedule: Q01DX009 (ip), vehicle: saline 95 % of control | dose: 25.0 mg/kg/injection, schedule: Q04DX003 (ip), vehicle: saline 114 % of control | dose: 50.0 mg/kg/injection, schedule: Q04DX003 (ip), vehicle: saline 104 % of control

CC(C)n1cc2cc([N+](=O)[O-])ccc2n1
inactive: dose: 50.0 mg/kg/injection, schedule: Q01DX009 (ip), vehicle: Klucel (hydroxypropylcellulose) (HPC) 91 % of control | [1] 97 % of control | [3] 97 % of control

COc1ccc(CC(N)C(=O)N2CC(n3cnc4c(N(C)C)ncnc43)CC2CO)cc1 (centres undefined)
inactive: dose: 25.0 mg/kg/injection, schedule: Q04DX002 (ip), vehicle: saline 98 % of control | dose: 50.0 mg/kg/injection, schedule: Q04DX002 (ip), vehicle: saline 119 % of control | [9] 105 % of control

Nc1ncnc2nc(-c3ccc(SCc4ccccc4)cc3)[nH]c12
inactive: dose: 50.0 mg/kg/injection, schedule: Q01DX009 (ip), vehicle: saline with Tween-80 93 % of control and 89 % of control | dose: 100.0 mg/kg/injection, schedule: Q01DX001 (ip), vehicle: saline with Tween-80 91 % of control | dose: 100.0 mg/kg/injection, schedule: Q01DX009 (ip), vehicle: saline with Tween-80 99 % of control and 103 % of control and 104 % of control | [17] 103 % of control | dose: 200.0 mg/kg/injection, schedule: Q01DX001 (ip), vehicle: saline with Tween-80 87 % of control | dose: 200.0 mg/kg/injection, schedule: Q01DX009 (ip), vehicle: saline with Tween-80 96 % of control and 103 % of control and 86 % of control | [18] 97 % of control and 100 % of control | dose: 400.0 mg/kg/injection, schedule: Q01DX001 (ip), vehicle: saline with Tween-80 91 % of control | [19] 94 % of control and 100 % of control

Nc1nc(N)c(CCCc2ccccc2)c(N)n1
inactive: [13] 87 % of control

c1ccc(C2CO2)cc1 (centres undefined)
inactive: dose: 25.0 mg/kg/injection, schedule: Q04DX003 (ip), vehicle: Klucel (hydroxypropylcellulose) (HPC) 97 % of control | [15] 95 % of control | dose: 50.0 mg/kg/injection, schedule: Q04DX003 (ip), vehicle: Klucel (hydroxypropylcellulose) (HPC) 90 % of control | [16] 101 % of control | [2] 98 % of control | dose: 200.0 mg/kg/injection, schedule: Q01DX001 (ip), vehicle: carboxymethylcellulose (CMC) 97 % of control | dose: 400.0 mg/kg/injection, schedule: Q01DX001 (ip), vehicle: carboxymethylcellulose (CMC) 97 % of control

C#CC1(OC(C)=O)CCCCC1
inactive: [10] 102 % of control | [7] 105 % of control | [11] 95 % of control | [8] 98 % of control | [12] 100 % of control | [14] 93 % of control

CCOC(COC(=O)c1ccccc1C(=O)O)c1ccccc1 (centres undefined)
inactive: [7] 94 % of control | [8] 97 % of control | [14] 92 % of control

O=P(c1ccccc1)(c1ccccc1)C1(O)CCCCC1Cl (centres undefined)
inactive: [10] 105 % of control | [11] 96 % of control | [12] 100 % of control

Cc1cccc(C)c1Nc1n[nH]c(=S)s1
inactive: [17] 102 % of control | [18] 105 % of control | [19] 105 % of control
